# Experimental data published in patent publication US10336792B2, “Antimicrobial peptide dendrimers” (priority 2014, dated 2019).
# Positions of bridges follow the written chain, without caps; N, C: chain ends. Non-standard residues stand in square brackets, D forms with d. Residues, ends and D or L forms follow the SMILES beside them. Groups on a side chain read outwards from the residue. Chains are numbered I, II in the order given. Dab = NCC[C@H](N)C(=O)O; Dap = NC[C@H](N)C(=O)O
# Test system: Pseudomonas aeruginosa (strain PA01)
# Test: microbe, parasite or virus in culture
# Format: cell-based
# Details: strain
# Method: Antimicrobial activity was assayed against Bacillus subtilis (strain BR151), Escherichia coli (strain DH5α) and Pseudomonas aeruginosa (strain PA01). Microdilution broth method was used to determine the minimal inhibitory concentration (MIC). A colony of bacteria was grown in LB-medium overnight at 37° C. The concentration was quantified by measuring absorbance at 600 nm and diluted to OD600=0.1 (1×10^8 CFU/mL). The samples were prepared as stock solutions of 1 mg mL^−1 in H2O and diluted serially by ⅔ in nutrient LB in a 96-well microtiterplate (Cornstar, polypropylene, untreated). The sample solutions (50 μL) were mixed with the diluted bacterial suspension with an OD600 nm of 0.001 (50 μL). […] The plates were incubated at 37° C. until satisfactory growth (18-24 h). For each test, two columns of the plate were kept for sterility control (SC, broth only) and growth control (GC, broth with bacterial inoculums, no antibiotics). 10 μL of a solution of MTT (0.1% in H2O) was added to each well. The minimal inhibitory concentration (MIC) was defined as the lowest concentration of the antimicrobial substance (peptide dendrimer) that inhibited visible growth of the tested bacteria (yellow) with the unaided eye. For microbiological study the linear peptide LysTyrLysLysAlaLeuLysLysLeuAlaLysLeuLeu (SEQ ID No. 1) was used as reference.
# All peptides were tested for their activity against P. aeruginosa PAO1 in a broth dilution assay (Wiegand, I. et al., 2008, Nat. Protoc., 3, 163-75; Clinical and Laboratory Standards Institute document M7-A7 7th Edition) to determine the MIC (minimal inhibitory concentration) values. The stock solutions of the peptide dendrimers were diluted serially by ⅔ in nutrient LB in 96-well microtiter plates. Bacteria were grown in nutrient LB overnight at 37° C. After dilution the bacteria were added to the peptides and incubated overnight (18-24 h) at 37° C. […] The position of the amino acids between the branching units seems to be optimal if the hydrophobic amino acid is the first counting from C-terminus and the charged one is on the second position. Introducing Ala as additional hydrophobic amino acid reduces activity (MSt-120). […] Also assembling charged or hydrophobic sections between the branching units leads to loss of activity whereas altering L-amino acids to D-amino acids maintains activity leading to the hypothesis that the mechanism of action should not be receptor mediated.
row,SMILES,MIC P. aeruginosa PAO1
1,"CC(C)C[C@H](NC(=O)[C@H](CC(C)C)NC(=O)[C@H](CCCCN)NC(=O)[C@H](CCCCNC(=O)[C@H](CC(C)C)NC(=O)[C@H](CCCCN)NC(=O)[C@H](CC(C)C)NC(=O)[C@H](CCCCNC(=O)[C@H](CC(C)C)NC(=O)[C@H](CCCCN)NC(=O)[C@H](CCCCNC(=O)[C@H](CC(C)C)NC(=O)[C@@H](N)CCCCN)NC(=O)[C@H](CC(C)C)NC(=O)[C@@H](N)CCCCN)NC(=O)[C@H](CC(C)C)NC(=O)[C@H](CCCCN)NC(=O)[C@H](CCCCNC(=O)[C@H](CC(C)C)NC(=O)[C@@H](N)CCCCN)NC(=O)[C@H](CC(C)C)NC(=O)[C@@H](N)CCCCN)NC(=O)[C@H](CC(C)C)NC(=O)[C@H](CCCCN)NC(=O)[C@H](CC(C)C)NC(=O)[C@H](CCCCNC(=O)[C@H](CC(C)C)NC(=O)[C@H](CCCCN)NC(=O)[C@H](CCCCNC(=O)[C@H](CC(C)C)NC(=O)[C@@H](N)CCCCN)NC(=O)[C@H](CC(C)C)NC(=O)[C@@H](N)CCCCN)NC(=O)[C@H](CC(C)C)NC(=O)[C@H](CCCCN)NC(=O)[C@H](CCCCNC(=O)[C@H](CC(C)C)NC(=O)[C@@H](N)CCCCN)NC(=O)[C@H](CC(C)C)NC(=O)[C@@H](N)CCCCN)C(N)=O [YGO-009, (KL)8(KKL)4(KLKL)2(KKLL)] (I: H-KLK([Leu-Lys])KLKLKLKKLL-NH2 / II: H-KLK([Leu-Lys])KLKLKL / III: H-KLK([Leu-Lys])KL / IV: H-KLK([Leu-Lys])KL; amide I:6-IV:C, I:10-II:C, II:6-III:C)",2 µg/mL
2,"CC(C)C[C@H](NC(=O)[C@H](CCN)NC(=O)[C@H](CCCCNC(=O)[C@H](CC(C)C)NC(=O)[C@H](CCN)NC(=O)[C@H](CCCCNC(=O)[C@H](CC(C)C)NC(=O)[C@@H](N)CCN)NC(=O)[C@H](CC(C)C)NC(=O)[C@@H](N)CCN)NC(=O)[C@H](CC(C)C)NC(=O)[C@H](CCN)NC(=O)[C@H](CCCCNC(=O)[C@H](CC(C)C)NC(=O)[C@@H](N)CCN)NC(=O)[C@H](CC(C)C)NC(=O)[C@@H](N)CCN)C(N)=O [MSt-201, (DabL)4(KDabL)2(KDabL)] (I: H-[Dab]LK([Leu-Dab])[Dab]LK[Dab]L-NH2 / II: H-[Dab]LK([Leu-Dab])[Dab]L; amide I:6-II:C; N-terminus assumed)",5 µg/mL
3,"CC(C)C[C@H](NC(=O)[C@H](CCCCN)NC(=O)[C@H](CC(C)C)NC(=O)[C@H](CCCCNC(=O)[C@H](CC(C)C)NC(=O)[C@H](CCCCN)NC(=O)[C@H](CC(C)C)NC(=O)[C@H](CCCCNC(=O)[C@H](CC(C)C)NC(=O)[C@H](CCCCN)NC(=O)[C@H](CC(C)C)NC(=O)[C@H](CCCCNC(=O)[C@H](CC(C)C)NC(=O)[C@H](CCCCN)NC(=O)[C@@H](N)CC(C)C)NC(=O)[C@H](CC(C)C)NC(=O)[C@H](CCCCN)NC(=O)[C@@H](N)CC(C)C)NC(=O)[C@H](CC(C)C)NC(=O)[C@H](CCCCN)NC(=O)[C@H](CC(C)C)NC(=O)[C@H](CCCCNC(=O)[C@H](CC(C)C)NC(=O)[C@H](CCCCN)NC(=O)[C@@H](N)CC(C)C)NC(=O)[C@H](CC(C)C)NC(=O)[C@H](CCCCN)NC(=O)[C@@H](N)CC(C)C)NC(=O)[C@H](CC(C)C)NC(=O)[C@H](CCCCN)NC(=O)[C@H](CC(C)C)NC(=O)[C@H](CCCCNC(=O)[C@H](CC(C)C)NC(=O)[C@H](CCCCN)NC(=O)[C@H](CC(C)C)NC(=O)[C@H](CCCCNC(=O)[C@H](CC(C)C)NC(=O)[C@H](CCCCN)NC(=O)[C@@H](N)CC(C)C)NC(=O)[C@H](CC(C)C)NC(=O)[C@H](CCCCN)NC(=O)[C@@H](N)CC(C)C)NC(=O)[C@H](CC(C)C)NC(=O)[C@H](CCCCN)NC(=O)[C@H](CC(C)C)NC(=O)[C@H](CCCCNC(=O)[C@H](CC(C)C)NC(=O)[C@H](CCCCN)NC(=O)[C@@H](N)CC(C)C)NC(=O)[C@H](CC(C)C)NC(=O)[C@H](CCCCN)NC(=O)[C@@H](N)CC(C)C)C(N)=O [MIS-08, (LKL)8(KLKL)4(KLKL)2(KLKL)] (I: H-LKLK([Leu-Lys-Leu])LKLKLKLKLKL-NH2 / II: H-LKLK([Leu-Lys-Leu])LKLKLKL / III: H-LKLK([Leu-Lys-Leu])LKL / IV: H-LKLK([Leu-Lys-Leu])LKL; amide I:8-IV:C, I:12-II:C, II:8-III:C)",4 µg/mL
4,"CC(C)C[C@H](NC(=O)[C@H](CCCCN)NC(=O)[C@H](CNC(=O)[C@H](CC(C)C)NC(=O)[C@H](CCCCN)NC(=O)[C@H](CNC(=O)[C@H](CC(C)C)NC(=O)[C@@H](N)CCCCN)NC(=O)[C@H](CC(C)C)NC(=O)[C@@H](N)CCCCN)NC(=O)[C@H](CC(C)C)NC(=O)[C@H](CCCCN)NC(=O)[C@H](CNC(=O)[C@H](CC(C)C)NC(=O)[C@@H](N)CCCCN)NC(=O)[C@H](CC(C)C)NC(=O)[C@@H](N)CCCCN)C(N)=O [MSt-138, (KL)4(BKL)2(BKL)] (I: H-KL[Dap]([Leu-Lys])KL[Dap]KL-NH2 / II: H-KL[Dap]([Leu-Lys])KL; amide I:6-II:C)",2 µg/mL
5,"CC(C)C[C@H](NC(=O)[C@H](CCCCN)NC(=O)[C@H](CC(C)C)NC(=O)[C@H](CCCCNC(=O)[C@H](CC(C)C)NC(=O)[C@H](CCCCN)NC(=O)[C@H](CC(C)C)NC(=O)[C@H](CCCCNC(=O)[C@H](CC(C)C)NC(=O)[C@H](CCCCN)NC(=O)[C@H](CCCCNC(=O)[C@H](CC(C)C)NC(=O)[C@@H](N)CCCCN)NC(=O)[C@H](CC(C)C)NC(=O)[C@@H](N)CCCCN)NC(=O)[C@H](CC(C)C)NC(=O)[C@H](CCCCN)NC(=O)[C@H](CCCCNC(=O)[C@H](CC(C)C)NC(=O)[C@@H](N)CCCCN)NC(=O)[C@H](CC(C)C)NC(=O)[C@@H](N)CCCCN)NC(=O)[C@H](CC(C)C)NC(=O)[C@H](CCCCN)NC(=O)[C@H](CC(C)C)NC(=O)[C@H](CCCCNC(=O)[C@H](CC(C)C)NC(=O)[C@H](CCCCN)NC(=O)[C@H](CCCCNC(=O)[C@H](CC(C)C)NC(=O)[C@@H](N)CCCCN)NC(=O)[C@H](CC(C)C)NC(=O)[C@@H](N)CCCCN)NC(=O)[C@H](CC(C)C)NC(=O)[C@H](CCCCN)NC(=O)[C@H](CCCCNC(=O)[C@H](CC(C)C)NC(=O)[C@@H](N)CCCCN)NC(=O)[C@H](CC(C)C)NC(=O)[C@@H](N)CCCCN)C(N)=O [YGO-011, (KL)8(KKL)4(KLKL)2(KLKL)] (I: H-KLK([Leu-Lys])KLKLKLKLKL-NH2 / II: H-KLK([Leu-Lys])KLKLKL / III: H-KLK([Leu-Lys])KL / IV: H-KLK([Leu-Lys])KL; amide I:6-IV:C, I:10-II:C, II:6-III:C)",3 µg/mL
6,"CC(C)C[C@H](NC(=O)[C@H](CCCCN)NC(=O)[C@H](CCCCNC(=O)[C@H](CC(C)C)NC(=O)[C@@H](N)CCCCN)NC(=O)[C@H](CC(C)C)NC(=O)[C@@H](N)CCCCN)C(=O)N[C@@H](CSSC[C@H](NC(=O)[C@H](CC(C)C)NC(=O)[C@H](CCCCN)NC(=O)[C@H](CCCCNC(=O)[C@H](CC(C)C)NC(=O)[C@@H](N)CCCCN)NC(=O)[C@H](CC(C)C)NC(=O)[C@@H](N)CCCCN)C(N)=O)C(N)=O [CCS-5 dimer, ((KL)2KKLC)2] (I: H-KLK([Leu-Lys])KLC-NH2 / II: H-KLK([Leu-Lys])KLC-NH2; disulfide I:6-II:6)",15 µg/mL
